How the values were obtained:
human SGLT2 = biological target: T1, human SGLT2 (Homo sapiens, UniProt P31639); test: Inhibition test of sodium-dependent sugar uptake in CHO-k1 cells stably expressing human SGLT2; format: cell-based; settings: for IC50: CHO-k1 cells expressing human SGLT2, [14C]methyl α-D-glucopyranoside uptake, 37° C., an hour; for SGLT2 % inhibition at 100 nM: sugar uptake inhibition rate at 100 nM test compound vs control group
T1 construct: expressed in transfected cells; host or cells: CHO-k1
T1 sequence (P31639 1-672): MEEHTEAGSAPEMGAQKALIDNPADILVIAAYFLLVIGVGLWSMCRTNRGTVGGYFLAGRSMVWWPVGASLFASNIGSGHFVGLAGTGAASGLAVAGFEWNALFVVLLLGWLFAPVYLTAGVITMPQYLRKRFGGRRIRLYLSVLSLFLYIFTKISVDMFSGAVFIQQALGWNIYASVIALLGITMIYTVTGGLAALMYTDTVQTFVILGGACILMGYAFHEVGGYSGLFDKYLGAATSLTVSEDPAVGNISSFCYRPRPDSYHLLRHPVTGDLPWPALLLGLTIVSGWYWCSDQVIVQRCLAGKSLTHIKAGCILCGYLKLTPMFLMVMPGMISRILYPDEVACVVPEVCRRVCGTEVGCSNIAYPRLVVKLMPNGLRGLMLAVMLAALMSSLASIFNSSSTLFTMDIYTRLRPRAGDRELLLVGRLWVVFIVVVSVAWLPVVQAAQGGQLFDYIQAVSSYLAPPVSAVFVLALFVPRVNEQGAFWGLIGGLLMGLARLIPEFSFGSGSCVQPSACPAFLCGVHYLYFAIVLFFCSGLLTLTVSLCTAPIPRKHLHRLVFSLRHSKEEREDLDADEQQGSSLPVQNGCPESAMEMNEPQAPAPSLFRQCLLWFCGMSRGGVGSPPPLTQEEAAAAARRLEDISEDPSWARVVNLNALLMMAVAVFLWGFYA
Procedure: (§1) An SGLT1 sequence (NM_000343) was reverse-transcripted from human small intestinal mRNA, then amplified, and then introduced into pCMV-tag5A from Stratagene Corporation. An SGLT2 sequence (NM_003041) was prepared from human nephric mRNA as with the above method, and then introduced into pcDNA3.1+hygro from Invitrogen Corporation. Each cloned sequence was confirmed to be identical with the reported sequence.
(§2) The human SGLT1 and human SGLT2 expression vectors were transfected into CHO-k1 cells by using Lipofectamine 2000 from Invitrogen Corporation. The SGLT expression cells were incubated in the presence of Geneticin (SGLT1) or Hygromycin B (SGLT2) at a 500 μg/mL concentration to select resistant strains, and specific activity of sugar uptake was obtained as an indicator by the following system.
(§3) Cells stably expressing human SGLT1 and human SGLT2 were used for the inhibition test of sodium-dependent glucose uptake.
(§4) The cells were incubated in a pretreatment buffer A (200 μL for SGLT1, and 2 mL for SGLT2) for 20 minutes. The pretreatment buffer was removed and an uptake buffer B (75 μL for SGLT1, and 200 μL for SGLT2) containing a test compound was added to conduct an uptake reaction at 37° C. for 30 minutes (SGLT1) or an hour (SGLT2). After the reaction, the cells were washed with a washing buffer C twice (200 μL for SGLT1, and 2 mL for SGLT2), and then dissolved in a 0.2 M solution of NaOH (75 μL for SGLT1, and 400 μL for SGLT2). After a liquid scintilater was added thereto and mixed sufficiently, radioactivity was measured with microBETA (SGLT1) or a liquid scintillation counter from Beckman Coulter, Inc (SGLT2). As a control group, an uptake buffer containing no test compound was prepared. In addition, as the basic uptake buffer, an uptake buffer B containing choline chloride instead of NaCl was prepared. • A pretreatment buffer A: 140 mM choline chloride, 2 mM KCl, 1 mM CaCl2, 1 mM MgCl2, 10 mM HEPES/5 mM Tris, pH 7.4. • An uptake buffer B: 1 mM of methyl α-D-glucopyranoside containing [^14C]methyl α-D-glucopyranoside, 140 mM NaCl, 2 mM KCl, 1 mM CaCl2, 1 mM MgCl2, 10 mM HEPES/5 mM Tris, pH 7.4. • A washing buffer C: 10 mM methyl α-D-glucopyranoside, 140 mM choline chloride, 2 mM KCl, 1 mM CaCl2, 1 mM MgCl2, 10 mM HEPES/5 mM Tris, pH 7.4.
(§5) In order to obtain IC50 values, test compounds having adequate 6 concentrations were used and the test compound concentrations (IC50 values) at which sugar uptake is inhibited by 50% in comparison with the amount of sugar uptake (100%) of the control group were calculated.
(§6) In addition, the sugar uptake inhibition rates at 100 nM concentration of the test compound in comparison with the control group are shown in Table 7.

human SGLT1 = biological target: T2, human SGLT1 (Homo sapiens, UniProt P13866); test: Inhibition test of sodium-dependent sugar uptake in CHO-k1 cells stably expressing human SGLT1; format: cell-based; settings: for IC50: CHO-k1 cells expressing human SGLT1, [14C]methyl α-D-glucopyranoside uptake, 37° C., 30 minutes; for SGLT1 % inhibition at 100 nM: sugar uptake inhibition rate at 100 nM test compound vs control group
T2 construct: expressed in transfected cells; host or cells: CHO-k1
T2 sequence (P13866 1-664): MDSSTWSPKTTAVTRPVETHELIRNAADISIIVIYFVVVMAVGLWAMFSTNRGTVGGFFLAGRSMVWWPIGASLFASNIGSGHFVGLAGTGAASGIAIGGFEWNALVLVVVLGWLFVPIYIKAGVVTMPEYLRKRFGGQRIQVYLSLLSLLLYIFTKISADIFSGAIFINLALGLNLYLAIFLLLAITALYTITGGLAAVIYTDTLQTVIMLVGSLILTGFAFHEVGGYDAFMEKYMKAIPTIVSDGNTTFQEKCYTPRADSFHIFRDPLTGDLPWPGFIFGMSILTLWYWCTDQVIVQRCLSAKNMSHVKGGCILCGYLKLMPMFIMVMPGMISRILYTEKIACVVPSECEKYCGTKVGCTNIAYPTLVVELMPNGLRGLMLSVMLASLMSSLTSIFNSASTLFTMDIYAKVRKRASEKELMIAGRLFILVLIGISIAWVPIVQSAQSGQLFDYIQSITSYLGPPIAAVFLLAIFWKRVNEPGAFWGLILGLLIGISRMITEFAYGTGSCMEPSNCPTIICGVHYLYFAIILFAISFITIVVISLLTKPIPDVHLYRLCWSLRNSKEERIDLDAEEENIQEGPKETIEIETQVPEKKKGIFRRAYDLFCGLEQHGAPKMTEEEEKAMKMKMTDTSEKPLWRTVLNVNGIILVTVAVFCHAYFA
Procedure: as §1, §2, §3, §4, §5, §6

## Cc1cc(O)c([C@@H]2O[C@H](CO)[C@@H](O)[C@H](O)[C@H]2O)cc1Cc1ccc(CCNC(=O)NC2CN3CCC2CC3)cc1 (stereo partly drawn) [Compound 34]
Human SGLT2
  IC50: 10 nM
Human SGLT1
  IC50: 49 nM

## Cc1cc(O)c([C@@H]2O[C@H](CO)[C@@H](O)[C@H](O)[C@H]2O)cc1Cc1ccc(CCNC(=O)NCC(c2ccccc2)c2ccccc2)cc1 [Compound 53]
Human SGLT2
  SGLT2 % inhibition at 100 nM: 74%
Human SGLT1
  SGLT1 % inhibition at 100 nM: 70%

## CSCC[C@@H](CO)NC(=O)NCCc1ccc(Cc2cc([C@@H]3O[C@H](CO)[C@@H](O)[C@H](O)[C@H]3O)c(O)cc2C)cc1 [Compound 47]
Human SGLT2
  SGLT2 % inhibition at 100 nM: 89%
Human SGLT1
  SGLT1 % inhibition at 100 nM: 73%

## Cc1cc(O)c([C@@H]2O[C@H](CO)[C@@H](O)[C@H](O)[C@H]2O)cc1Cc1ccc(CCNC(=O)NC2CCCC2)cc1 [Compound 125]
Human SGLT2
  SGLT2 % inhibition at 100 nM: 90%
Human SGLT1
  SGLT1 % inhibition at 100 nM: 68%

## CCCN(CC1CC1)C(=O)NCCc1ccc(Cc2cc([C@@H]3O[C@H](CO)[C@@H](O)[C@H](O)[C@H]3O)c(O)cc2C)cc1 [Compound 25]
Human SGLT2
  IC50: 20 nM
Human SGLT1
  IC50: 64 nM

## Cc1cc(O)c([C@@H]2O[C@H](CO)[C@@H](O)[C@H](O)[C@H]2O)cc1Cc1ccc(CCNC(=O)NCc2cccs2)cc1 [Compound 26]
Human SGLT2
  IC50: 15 nM
Human SGLT1
  IC50: 52 nM

## Cc1cc(O)c([C@@H]2O[C@H](CO)[C@@H](O)[C@H](O)[C@H]2O)cc1Cc1ccc(CCNC(=O)NCCc2ccccc2)cc1 [Compound 71]
Human SGLT2
  SGLT2 % inhibition at 100 nM: 86%
Human SGLT1
  SGLT1 % inhibition at 100 nM: 59%

## Cc1cc(O)c([C@@H]2O[C@H](CO)[C@@H](O)[C@H](O)[C@H]2O)cc1Cc1ccc(CCNC(=O)NCC2OCCO2)cc1 [Compound 64]
Human SGLT2
  SGLT2 % inhibition at 100 nM: 76%
Human SGLT1
  SGLT1 % inhibition at 100 nM: 62%

## CCC(CO)(CO)NC(=O)NCCc1ccc(Cc2cc([C@@H]3O[C@H](CO)[C@@H](O)[C@H](O)[C@H]3O)c(O)cc2C)cc1 [Compound 38]
Human SGLT2
  SGLT2 % inhibition at 100 nM: 83%
Human SGLT1
  SGLT1 % inhibition at 100 nM: 89%

## Cc1cc(O)c([C@@H]2O[C@H](CO)[C@@H](O)[C@H](O)[C@H]2O)cc1Cc1ccc(CCNC(=O)NCC2CCCO2)cc1 (stereo partly drawn) [Compound 65]
Human SGLT2
  SGLT2 % inhibition at 100 nM: 76%
Human SGLT1
  SGLT1 % inhibition at 100 nM: 62%

## Cc1cc(O)c([C@@H]2O[C@H](CO)[C@@H](O)[C@H](O)[C@H]2O)cc1Cc1ccc(CCNC(=O)NC(Cc2ccccc2)C(N)=O)cc1 (stereo partly drawn) [Compound 60]
Human SGLT2
  SGLT2 % inhibition at 100 nM: 91%
Human SGLT1
  SGLT1 % inhibition at 100 nM: 66%

## Cc1cc(O)c([C@@H]2O[C@H](CO)[C@@H](O)[C@H](O)[C@H]2O)cc1Cc1ccc(CCNC(=O)N[C@@H](Cc2ccccc2)C(N)=O)cc1 [Compound 40]
Human SGLT2
  SGLT2 % inhibition at 100 nM: 89%
Human SGLT1
  SGLT1 % inhibition at 100 nM: 79%

## Cc1cc(O)c([C@@H]2O[C@H](CO)[C@@H](O)[C@H](O)[C@H]2O)cc1Cc1ccc(CCNC(=O)NC2Cc3ccccc3C2)cc1 [Compound 138]
Human SGLT2
  SGLT2 % inhibition at 100 nM: 84%
Human SGLT1
  SGLT1 % inhibition at 100 nM: 65%

## Cc1cc(O)c([C@@H]2O[C@H](CO)[C@@H](O)[C@H](O)[C@H]2O)cc1Cc1ccc(CCNC(=O)NCCc2ccc(O)cc2)cc1 [Compound 63]
Human SGLT2
  SGLT2 % inhibition at 100 nM: 81%
Human SGLT1
  SGLT1 % inhibition at 100 nM: 63%

## Cc1cc(O)c([C@@H]2O[C@H](CO)[C@@H](O)[C@H](O)[C@H]2O)cc1Cc1ccc(CCNC(=O)NCc2cc(Cl)cc(Cl)c2)cc1 [Compound 27]
Human SGLT2
  IC50: 15 nM
Human SGLT1
  IC50: 54 nM

## COc1cccc(CCNC(=O)NCCc2ccc(Cc3cc([C@@H]4O[C@H](CO)[C@@H](O)[C@H](O)[C@H]4O)c(O)cc3C)cc2)c1 [Compound 51]
Human SGLT2
  SGLT2 % inhibition at 100 nM: 84%
Human SGLT1
  SGLT1 % inhibition at 100 nM: 71%

## COc1ccc(CCN(C)C(=O)NCCc2ccc(Cc3cc([C@@H]4O[C@H](CO)[C@@H](O)[C@H](O)[C@H]4O)c(O)cc3C)cc2)cc1OC [Compound 57]
Human SGLT2
  SGLT2 % inhibition at 100 nM: 51%
Human SGLT1
  SGLT1 % inhibition at 100 nM: 68%

## CCCNC(=O)NCCc1ccc(Cc2cc([C@@H]3O[C@H](CO)[C@@H](O)[C@H](O)[C@H]3O)c(O)cc2C)cc1 [Compound 56]
Human SGLT2
  SGLT2 % inhibition at 100 nM: 77%
Human SGLT1
  SGLT1 % inhibition at 100 nM: 68%
